Assay results: PMC12030568, “Binding Affinity of Synthetic Cannabinoids to Human Serum Albumin: Site Characterization and Interaction Insights” (Pharmaceuticals, 2025)
Entries after “also recorded” stand apart in the source; their conditions may differ.

Experiments:
HSA site I = target: T1, HSA site I (Homo sapiens, UniProt P02768); assay: Zonal displacement chromatography on HSA column with warfarin (site I probe); assay type: binding; conditions: competitor warfarin 5-20 µM in mobile phase; 13% ACN; plot of 1/k vs competitor concentration
T1 construct: catalogue number not given
T1 sequence (P02768 25-609): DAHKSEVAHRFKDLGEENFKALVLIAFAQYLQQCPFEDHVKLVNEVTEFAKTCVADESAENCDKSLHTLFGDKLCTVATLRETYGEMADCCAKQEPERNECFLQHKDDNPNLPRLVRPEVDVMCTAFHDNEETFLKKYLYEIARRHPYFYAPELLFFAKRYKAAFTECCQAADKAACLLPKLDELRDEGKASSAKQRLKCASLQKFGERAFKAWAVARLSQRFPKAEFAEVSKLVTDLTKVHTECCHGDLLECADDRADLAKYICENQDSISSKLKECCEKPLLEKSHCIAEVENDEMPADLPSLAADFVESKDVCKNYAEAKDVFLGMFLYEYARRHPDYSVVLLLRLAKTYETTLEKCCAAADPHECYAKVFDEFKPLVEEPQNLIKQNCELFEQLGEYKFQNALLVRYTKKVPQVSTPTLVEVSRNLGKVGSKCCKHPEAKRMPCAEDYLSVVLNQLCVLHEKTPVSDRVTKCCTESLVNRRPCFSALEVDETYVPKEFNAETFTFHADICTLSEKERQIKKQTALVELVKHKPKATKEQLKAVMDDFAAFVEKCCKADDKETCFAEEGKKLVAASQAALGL
Description: (§1) To gain deeper insights into HSA binding, displacement studies were conducted to further investigate the binding sites of the synthetic cannabinoids on this protein. […] These competitors are commonly used in displacement studies to elucidate binding interactions at specific HSA sites.
(§2) Various concentrations of the competitors were added to the mobile phase, based on previous studies.
(§3) The chromatographic data are plotted as 1/k versus the competitor concentration.
(§4) The analyses were performed in reversed-phase mode using as mobile phases mixtures of 67 mM potassium phosphate buffer solution (pH 7.0) with different proportions of ACN. […] All chromatographic analyses were performed at 25 ± 2 °C, under isocratic mode, with UV detection at 220, 254, and 300 nm. All mobile phases were prepared in a volume/volume ratio (v/v), filtered through polyamide membrane filters of 0.2 µm pore size from Whatman® GmbH (Dassel, Germany), and degassed in an ultrasonic bath (Soltec® Sonica® Ultrasonic cleaner) for at least 15 min before use.
(§5) Stock solutions of all synthetic cannabinoids were prepared in EtOH at the concentration of 0.2 mg/mL and further diluted with the mobile phase, the potassium phosphate buffer (67 mM, pH 7.0), to a final concentration of 50 μg/mL. All working solutions were filtered through a membrane of 0.45 µm pore size and vortexed for at least 30 s before injection. […] All solutions were stored at 4 °C. […] These concentrations were selected based on previous displacement studies. An aqueous buffer of a 67 mM solution of potassium phosphate was prepared by adjusting the pH to 7.0 with a solution of saturated NaOH. The aqueous buffer pH was controlled with a Crison® BasiC 20 pH meter.
(§6) Equation (5) can be used to describe the impact of the competitor (I) on the retention time of each analyte (A) [32, 58](5) 1/k=VMKI[I]/KAmL+VM/KAmL where KI is the association equilibrium constant of I at the binding site of competition with A, [I] is the concentration of the competitor in the mobile phase, and KA is the association equilibrium constant of A at the binding site of competition with I.
(§7) If a direct competition between the analyte and the competing agent occurs, a straight line with a positive slope is observed in the plot of 1/k versus [I]; if allosteric competition between the analyte and the competing agent occurs, a straight line with a negative slope is observed in the plot of 1/k versus [I]; and if random variations are observed, no competition between the analyte and the competing agent occurs.

[1] = target: human serum albumin (HSA) (Homo sapiens, UniProt P02768); assay: HPAC zonal elution on CHIRALPAK HSA column, bound fraction determination; conditions: for Bound Fraction (%b) / Retention factor (k): values at 100% aqueous buffer, extrapolated from log k vs % ACN (11-16%), 67 mM potassium phosphate buffer pH 7.0, 25 °C; for experimental %b to HSA (controls): ACN in mobile phase ranging from 2% to 20%
Chain of human serum albumin (HSA) (P02768 25-609): as above
Description: Binding affinity studies were conducted using a series of commercially available synthetic cannabinoids (Figure 1). […] The binding affinity of the synthetic cannabinoids to HSA was measured based on previously established methods using HPAC [15, 35, 36]. […] The analyses were performed using zonal elution in reversed-phase mode. A potassium phosphate buffer solution (67 mM, pH 7.0) was selected as the mobile phase due to HSA’s stability in phosphate buffers, and to closely mimic physiological conditions. Several studies describe the use of this buffer in protein binding studies mimicking the physiological conditions of human plasma.
ACN was chosen for the HSA studies, as it is one of the most commonly used organic modifiers in HSA columns. However, a low percentage of the organic modifier was necessary to prevent protein denaturation and prolong the column’s lifespan. Additionally, the presence of an organic modifier must be carefully considered, as it can alter the number of available binding sites by affecting the spatial conformation of the protein [41].
To calculate the bound fraction (%b) to HSA, different proportions of organic modifier were added to the mobile phase, ranging from 11% to 15%. In the Supplementary Materials (Figures S1–S6), representative chromatograms for each synthetic cannabinoid are shown, as examples. […] All analyses were performed in triplicate. […] To determine the %b values in a 100% aqueous buffer, an extrapolation was performed by plotting the logarithm of the retention factor (log k) against the percentage of the organic modifier (Figure S7, Supplementary Materials).
To determine the experimental %b values for these controls, different proportions of ACN were added to the mobile phase, ranging from 2% to 20%.
The sample injections (10 µL) were carried out in triplicate, and the flow rate was set to 0.5 mL/min.
as §4
Zonal analysis was the approach selected for the development of this work. The retention of the analyte is directly related to its interaction with the immobilized HSA, and can be described with Equation (1).(1) k=(KA1n1+…+KAnnn)mL/VM
The retention factor (k) is related to the number of binding sites and to their corresponding equilibrium constants (KA). VM represents the void volume and mL the total moles of the analyte binding sites. Equation (2) was used to calculate the retention factor [58].(2) k=tr−t0/t0
tr corresponds to the retention time of the analyte and t0 to the dead time. The t0 was taken from each individual run and was considered to be equal to the solvent front.
One application of zonal elution in HPAC is to measure the binding affinity of a drug to an immobilized protein.

HSA site II = target: T2, HSA site II (Homo sapiens, UniProt P02768); assay: Zonal displacement chromatography on HSA column with (S)-ibuprofen and L-tryptophan (site II probes); assay type: binding; conditions: 13% ACN; for Interaction with (S)-ibuprofen on HSA: competitor (S)-ibuprofen 5-20 µM in mobile phase, negative slope of 1/k vs concentration; for Binding profile at HSA Site II: competitor L-tryptophan 5-20 µM in mobile phase, plot of 1/k vs competitor concentration
T2 construct: catalogue number not given
T2 sequence (P02768 25-609): as above
Description: as §1, §2, §3, §4, §5, §6, §7

HSA [2] = conditions: cited from earlier work
[3] = parameters: method as in PMID 26810883; conditions: ultrafiltration and LC-MS; cited from earlier work
HSA [4] = conditions: cited from earlier work; remark: listed apart in the source

SMILES | Binding profile at HSA Site I (HSA site I) | Bound Fraction (%b) [1] [%] | Retention factor (k) [1] | Interaction with (S)-ibuprofen on HSA (HSA site II) | Binding profile at HSA Site II (HSA site II) | other results
CC(C)[C@H](NC(=O)c1nn(CC2CCCCC2)c2ccccc12)C(N)=O | bind to both site I and site II of HSA; also recorded: Binding occurs (competition with warfarin) | 99.7 | 294.40 | exhibits allosteric interactions with (S)-ibuprofen; also recorded: Allosterically interacts with (S)-ibuprofen | bind to both site I and site II of HSA; also recorded: Binding occurs (competition with L-tryptophan) | –
COC(=O)[C@@H](NC(=O)c1nn(CCCCCF)c2ccccc12)C(C)C [5F-AMB] | compete with warfarin for site I; also recorded: Binding occurs (competition with warfarin) | 98.9 | 87.30 | interact allosterically with (S)-ibuprofen; also recorded: Allosterically interacts with (S)-ibuprofen | do not compete with L-tryptophan; also recorded: Binding does not occur (no competition with L-tryptophan) | –
CCCCCn1nc(C(=O)N[C@H](C(N)=O)C(C)C)c2ccccc21 [AB-PINACA] | compete with warfarin for site I; also recorded: Binding occurs (competition with warfarin) | 98.7 | 79.11 | interact allosterically with (S)-ibuprofen; also recorded: Allosterically interacts with (S)-ibuprofen | do not compete with L-tryptophan; also recorded: Binding does not occur (no competition with L-tryptophan) | –
CC(C)(C)[C@H](NC(=O)c1nn(Cc2ccc(F)cc2)c2ccccc12)C(N)=O [ADB-FUBINACA] | neither site I nor site II is its primary binding site in HSA; also recorded: Binding does not occur (no competition with warfarin) | 99.8 | 619.87 | Allosterically interacts with (S)-ibuprofen | neither site I nor site II is its primary binding site in HSA; also recorded: Binding does not occur (no competition with L-tryptophan) | –
COC(=O)[C@@H](NC(=O)c1nn(Cc2ccc(F)cc2)c2ccccc12)C(C)C [AMB-FUBINACA] | compete with warfarin for site I; also recorded: Binding occurs (competition with warfarin) | 99.7 | 326.38 | interact allosterically with (S)-ibuprofen; also recorded: Allosterically interacts with (S)-ibuprofen | do not compete with L-tryptophan; also recorded: Binding does not occur (no competition with L-tryptophan) | –
O=C(c1cccc2ccccc12)c1nc2ccccc2n1CCCCCF [FUBIMINA] | – | 99.9 | 968.23 | – | – | –
N[C@@H](Cc1c[nH]c2ccccc12)C(=O)O [L-Tryptophan, L-tryptophan] | – | – | – | – | – | Affinity constant of competitor for HSA (Lit.) (HSA [2]): KI L-Tryptophan (M^−1) (Lit. 4.4 × 10^4 M^−1) [55]
Cc1c(C(=O)c2cccc3ccccc23)c2cccc3c2n1[C@H](CN1CCOCC1)CO3 [WIN 55,212-2] | – | – | – | – | – | plasma protein binding [3]: 95%
CC(=O)CC(c1ccccc1)c1c(O)c2ccccc2oc1=O (centres unmarked) [Warfarin, warfarin] | – | – | – | – | – | Affinity constant of competitor for HSA (Lit.) (HSA [2]): KI Warfarin (M^−1) (Lit. 3.3 × 10^5 M^−1) [55]
CN(C)CCCN1c2ccccc2Sc2ccc(Cl)cc21 [chlorpromazine, reference compound] | – | – | – | – | – | experimental %b to HSA (controls) [1]: 82.12%; reported %b to HSA (HSA [4]): > 90%
COc1ccc2c(c1)c(CC(=O)O)c(C)n2C(=O)c1ccc(Cl)cc1 [indomethacin] | – | – | – | – | – | reported %b to HSA (HSA [4]): 97.8%
Cc1ncc([N+](=O)[O-])n1CCO [metronidazole, reference compound] | – | – | – | – | – | experimental %b to HSA (controls) [1]: 19.78%; reported %b to HSA (HSA [4]): 20%
